According to patent publication US7321046B2, “Analogs of dictyostatin, intermediates therefor and methods of synthesis thereof” (University of Pittsburgh, priority 2002, dated 2008):
Where two headings read alike, the source gives them in different places.

Key:
[1] = tested on: human ovarian carcinoma cells (1A9); assay: Antiproliferative assay (GI50, MTS); type: cell-based; details: for antiproliferative potency / GI50 values (in words): Table 1 (1A9 and mutant lines)
Experimental: (§1) Representative analogs were examined for their antiproliferative activities against human ovarian carcinoma 1A9 cells and their paclitaxel-resistant mutants, 1A9/Ptx10 and 1A9/Ptx22.
[…] Cells were maintained in RPMI medium with 10% FBS in it, plated in tissue culture plates, and allowed to grow for 48-72 h before transferring them into 96-well plates. Cells were allowed to attach and grow for 48 h in 96-well plates after which they were treated with either control (DMSO) or drug in triplicate/quadruplicate. Cells were incubated with the compounds for 72 h. Cells were treated with MTS reagent before reading the plate in a Dynamax plate reader for determining the cell number. The fifty percent growth inhibition values (GI50 values) were calculated for the compounds against all the three cell lines.

[2] = tested on: 1A9/Ptx10 (Phe270 −> Val) β-tubulin mutant cells; assay: Antiproliferative assay (GI50, MTS), paclitaxel-resistant clone; type: cell-based, human; details: for fold-resistance: 1A9/Ptx10 versus parental 1A9
Experimental: as §1
(§2) The effects of dictyostatin and its analogs on growth inhibition of parental ([…]) and paclitaxel-resistant (1A9/Ptx10 and Ptx22) ovarian adenocarcinoma cell lines were evaluated following the antiproliferative assay protocol as described earlier (Minguez et al., 2003; Choy et al., 2003; Lazo et al., 2001). Cells were maintained in RPMI medium with 10% FBS in it, plated in tissue culture plates, and allowed to grow for 48-72 h before transferring them into 96-well plates. Cells were allowed to attach and grow for 48 h in 96-well plates after which they were treated with either control (DMSO) or drug in triplicate/quadruplicate. Cells were incubated with the compounds for 72 h. Cells were treated with MTS reagent before reading the plate in a Dynamax plate reader for determining the cell number. The fifty percent growth inhibition values (GI50 values) were calculated for the compounds against all the three cell lines.

[3] = tested on: 1A9/Ptx22 (Ala364 −> Thr) β-tubulin mutant cells; assay: as above; type: cell-based, human; details: for fold-resistance: 1A9/Ptx22 versus parental 1A9
Experimental: as §1, §2

Bovine brain tubulin = tested on: T1, Bovine brain tubulin; assay: Pelleting assay (tubulin assembly EC50 determination); type: biochemical; details: tubulin 10 μM in 0.2 M MSG, 15 min at 20° C.; for EC50: concentration required to polymerize 50% of tubulin, read-out: EC50 (μM) ± SD (N)
T1 construct: Bovine brain tubulin (10 μM) in 0.2 M MSG, 15 min at 20° C
Experimental: Dictyostatin and representative analogs were evaluated in a quantitative assay for their ability to promote tubulin polymerization. […] When the percent polymer formed was determined in the reactions, a comparison of the activities of all the analogs could be made.
The assay was performed under three different reaction conditions following the procedure reported earlier (Gapud et al., 2004). Reaction condition 1 included 0.2 M monosodium glutamate (MSG), 10 μM tubulin, 5% DMSO and varying concentrations of test agents. Reaction condition 2 included 0.8 M MSG, 400 μM GTP, 10 μM tubulin, 5% DMSO, and varying concentrations of test agents. Reaction condition 3 had 0.6 M MSG, 200 μM GTP, and 10 μM tubulin, and 5% DMSO, and varying concentrations of the test agents. The experimental protocol for all the three reaction conditions was the following. The reaction mixtures were incubated at room temperature (20-22° C.) for 15 min and spun for 10 min at 14,000 rpm in an Eppendorf microtube centrifuge. Aliquots of the supernatants were removed and assayed for protein content by the method of Lowry.

[4] = tested on: microtubules (tubulin polymer); assay: Radiolabeled ligand binding assays; details: test agent 4 μM; radiolabel 4.0 μM; 37° C.
Experimental: The abilities of test agents to inhibit the binding of radiolabeled forms of the microtubule stabilizers paclitaxel, discodermolide and epothilone B from tubulin polymer were determined.
[^3H]Paclitaxel, [^3H]discodermolide and [^14C]epothilone B solutions were prepared as 125 μM stock solutions in 50% DMSO. Radiolabeled compound (final concentration, 4.0 μM) and test agents at final concentrations noted in the text and tables were mixed in 50 μL of 4:1 (v/v) 0.75 M aqueous MSG/DMSO and warmed to 37° C. Meanwhile, a reaction mixture containing 0.75 M MSG, 2.5 μM tubulin, and 25 μM ddGTP was prepared and incubated at 37° C. for 30 min to form microtubuless. A 200 μL aliquot of the microtubule mixture was added to the drug mixtures, and incubation continued for 30 min at 37° C. Reaction mixtures were centrifuged in an Eppendorf 5417C centrifuge at 14,000 rpm for 20 min at room temperature. Radiolabel in the supernatants (100 μL) was determined by scintillation spectrometry.

HeLa cells = assay: Multiparameter fluorescence high information content analysis of cellular effects; type: cell-based; parameters: unit not given here; details: 24 h treatment; for Minimum detectable cellular change, Nuclear condensation: Hoechst 33342
Experimental: HeLa cells were plated on collagen-coated 384-well microtiter plates, allowed to attach, then treated for 24 h with test agents. Test agent concentrations began at 1 μM, and two-fold dilutions were made to levels below 1 nM. After the treatment period, the cells were fixed with formalin and their chromatin stained with Hoechst 33342. Cells were permeabilized and treated with primary antibodies for α-tubulin and phosphohistone H3, and then with fluorophore-labeled secondary antibodies. The three fluorescent channels were then examined on an ArrayScan II, which gives quantitative pixel distribution and density information in each channel on a per cell basis.
HeLa cells growing at log phase were trypsinized and plated in 40 μL at a density of 7,000-8,000 cells per well in calf skin collagen I-coated 384-well plates (Falcon #3962; Fisher Scientific). Cells were exposed to test agents or 0.5% DMSO within 2-8 h of plating. Concentrated DMSO stock solutions of all test agents were diluted into solutions of HBSS medium plus 10% FBS and added to the microplate wells (10 μL per well), using an automated liquid handling system (Biomek® 2000; Beckman-Coulter, Inc.) to provide a serial 2-fold dilution of each test agent. The cells were incubated in the presence of test agents for 24 h. At the end of the incubation, the medium was removed and replaced with HBSS containing 4% formaldehyde and 10 μg/mL Hoechst 33342 (25 μL/well) to fix the cells and fluorescently label their chromatin. After incubation at room temperature for 20-30 min, the solution was removed from each well and replaced with HBSS (100 μL/well). Further reagent additions were made to the microplates using the Biomek 2000. After removing the HBSS from each well, cells were permeabilized for 5 min at room temperature with 0.5% (w/w) Triton X-100 in HBSS (10 μL/well). This step extracts a fraction of the soluble cellular components, including soluble tubulin. The wells were washed with HBSS (100 μL/well), followed by addition of a primary antibody solution containing mouse anti-α-tubulin (1:3000) and rabbit anti-phosphohistone H3 (1:500) in HBSS (10 μL/well). After 1 h at room temperature, the wells were washed with HBSS as above, followed by the addition of a secondary antibody solution containing fluorescein-5-isothiocyanate (FITC)-labeled donkey anti-mouse (1:300) and Cy3-labeled donkey anti-rabbit (1:300) antibodies diluted in HBSS (10 μL/well). After 1 h at room temperature, the wells were washed as above, and HBSS was added (100 μL/well). The plates were placed in an ArrayScan® HCS Reader with the Target Activation BioApplication Software coupled to Cellomics® Store and the vHCS™ Discovery Toolbox (Cellomics, Inc.) to analyze images. Briefly, the instrument was used to scan multiple optical fields, each with multiparameter fluorescence, within a subset of the wells of the 384-well microplate. The BioApplication software produced multiple numerical feature values, such as subcellular object intensities, shapes, and location for each cell within an optical field. […] A nuclear mask was generated from Hoechst 33342-stained nuclei, and object identification thresholds and shape parameters were set such that the algorithm identified over 90% of the nuclei in each field. Objects that touched each other or the edge of the image were excluded from the analysis. Tubulin mass was defined as the average green (FITC) pixel intensity in an area defined by the Hoechst-defined nuclear mask. This cytoplasmic area around the nucleus contains cytoskeletal components is a region from which sensitive measurements of cytoplasmic characteristics can be made.

[5] = read-out: GI50 ± S.D., 1A9 parental cells, 72 h incubation
[6] = read-out: GI50 ± S.D., 1A9/Ptx10 (Phe270 −> Val), 72 h incubation
[7] = read-out: GI50 ± S.D., 1A9/Ptx22 (Ala364 −> Thr), 72 h incubation

SMILES	antiproliferative potency / GI50 values (in words) [1]	GI50 [1, 5]	fold-resistance [2]	GI50 [2, 6]	fold-resistance [3]	GI50 [3, 7]	% Tubulin polymerized by 50 μM test agent (Bovine brain tubulin)	EC50 (Bovine brain tubulin)	Percent inhibition of radiolabel from microtubules, [3H]Paclitaxel [4]	Minimum detectable cellular change, Phosphohistone H3 (HeLa cells)	Minimum detectable cellular change, Tubulin polymer intensity (HeLa cells)	Minimum detectable cellular change, Nuclear condensation (HeLa cells)	also measured
C=CC=CC(C)C1OC(=O)C=CC=CC(C)C(O)CC(O)C=CC(C)C(O)C(C)CC(C)CCC(O)C1C [Compound 100, 8(S),10(S),14(R),20(R)-Tetrahydroxy-7(S),13(S),15(R),17(S),21 (S)-pentamethyl-22(S)-(1(S)-methyl-penta-2,4-dienyl)-oxa-cyclodocosa-3(E),5(E),11(Z)-trien-2-one]	high nanomolar GI50 values	0.31 ± 0.04 µM	2.5 fold	0.78 ± 0.2 µM	2.5 fold	0.79 ± 0.56 µM	1 ± 1%	> 50 µM	0 ± 1%	>5000 (4)	>5000 (4)	>5000 (4)	–
C=CC=CC(C)C1OC(=O)C=CC=CC(C)C(O)CC(O)C=CC(C)C(O)C(C)CC(C)CCC(O)C1C [Compound 108, 8(S),10(S),14(R),20(S)-Tetrahydroxy-7(S),13(S),15(R),17(S),21(S)-pentamethyl-22(S)-(1(S)-methyl-penta-2,4-dienyl)oxacyclodocosa-3(Z),5(E),11(Z)-trien-2-one]	mid micromolar GI50 values	–	0.9 fold	–	1.1 fold	–	5 ± 1%	> 50 µM	0 ± 1%	>5000 (4)	>5000 (4)	>5000 (4)	GI50 ([1]; Homo sapiens, Ovarian carcinoma cell, 72 h, read-out: GI50 ± S.D., 1A9 parental cells, 72 h incubation): 28 ± 1 µM; GI50 ([2]; Homo sapiens, 1A9/ptx-10, 72 h, read-out: GI50 ± S.D., 1A9/Ptx10 (Phe270 −> Val), 72 h incubation): 26 µM; GI50 ([3]; Homo sapiens, 1A9/ptx-22, 72 h, read-out: GI50 ± S.D., 1A9/Ptx22 (Ala364 −> Thr), 72 h incubation): 30 ± 1 µM
C=CC=CC(C)C1OC(=O)C=CC=CC(C)C(O)CC(O)C=CC(C)C(O)C(C)CC(C)CCC(O)C1C [Compound 109, 8(S),10(S),14(R),20(S)-Tetrahydroxy-7(S),13(S),15(R),17(S),21(S)-pentamethyl-22(S)-(1(S)-methyl-penta-2,4-dienyl)oxacyclodocosa-3(E),5(E),11(Z)-trien-2-one]	mid micromolar GI50 values	25 ± 2 µM	1 fold	25 ± 1 µM	1.2 fold	30 ± 1 µM	5 ± 4%	> 50 µM	0 ± 1%	>5000 (4)	>5000 (4)	>5000 (4)	–
CC(=O)O[C@H]1C(=O)[C@@]2(C)[C@H]([C@H](OC(=O)c3ccccc3)[C@]3(O)C[C@H](OC(=O)[C@H](O)[C@@H](NC(=O)c4ccccc4)c4ccccc4)C(C)=C1C3(C)C)[C@]1(OC(C)=O)CO[C@@H]1C[C@@H]2O [paclitaxel, reference compound]	subnanomolar potency	–	90 fold	–	72 fold	–	89 ± 6%	25 ± 3 µM	–	17.5 ± 6.8 (4)	8.0 ± 2.9 (4)	40.2 ± 13.9 (4)	GI50 ([1]; Homo sapiens, Ovarian carcinoma cell, 72 h, 1A9 parental cells, 72 h incubation, read-out: GI50 ± S.D.): 0.00071 ± 0.00011 µM; fold-resistance ([2]; listed as Paclitaxel): ca. 90 fold; GI50 ([2]; Homo sapiens, 1A9/ptx-10, 72 h, 1A9/Ptx10 (Phe270 −> Val), 72 h incubation, read-out: GI50 ± S.D.): 0.064 ± 0.008 µM; fold-resistance ([3]; listed as Paclitaxel): ~70 fold; GI50 ([3]; Homo sapiens, 1A9/ptx-22, 72 h, 1A9/Ptx22 (Ala364 −> Thr), 72 h incubation, read-out: GI50 ± S.D.): 0.051 ± 0.009 µM; Percent inhibition of radiolabel from microtubules, [3H]Discodermolide [4]: 6 ± 5 (3) %; Percent inhibition of radiolabel from microtubules, [14C]Epothilone B [4]: 26 ± 1 (3) %
